Source: ChEMBL document CHEMBL1127979, “Synthesis and anti-tumour activity of 6-methyl derivatives of flavone-8-acetic acid (FAA)” (Bioorg Med Chem Lett, 1994)
In brackets after ≈: the same amount, converted by molar mass.

Legend:
HT-29 = assay: In vitro concentration required to inhibit HT-29 cells; format: functional, cell-based; conditions: Homo sapiens
MAC15A = assay: In vitro concentration required to inhibit MAC 15 A cells; format: functional, cell-based; conditions: Mus musculus
K562 = assay: In vitro concentration required to inhibit K562 cells; format: functional, cell-based; conditions: Homo sapiens
Mus musculus = assay: In vivo antitumor activity in murine tumors at a dose of 200 mg/Kg; format: functional
HCLO cell line = assay: In vitro concentration required to inhibit HCLO cells; format: functional, cell-based; conditions: Homo sapiens
HCT-8 = assay: In vitro concentration required to inhibit HCT18 cells; format: functional, cell-based; conditions: Homo sapiens
MAC16 = assay: In vitro concentration required to inhibit MAC 16 cells; format: functional, cell-based; conditions: Mus musculus
MAC26 = assay: In vitro concentration required to inhibit MAC 26 cells; format: functional, cell-based; conditions: Mus musculus
DLD-1 = assay: In vitro concentration required to inhibit DLD1 cells; format: functional, cell-based; conditions: Homo sapiens
HRT-18 cell line = assay: In vitro concentration required to inhibit HRT18 cells; format: functional, cell-based; conditions: Homo sapiens

## O=C(O)Cc1cccc2c(=O)cc(-c3ccccc3)oc12 [MITOFLAXONE]
HT-29
  IC50: 390 µg/mL (≈ 1390 µM)
MAC15A
  IC50: 150 µg/mL (≈ 535 µM)
K562
  IC50: 310 µg/mL (≈ 1110 µM)
Mus musculus
  inhibition in vivo at 200 mg/kg: 83%
HCLO cell line
  IC50: > 500 µg/mL
HCT-8
  IC50: 245 µg/mL (≈ 874 µM)
MAC16
  IC50: 180 µg/mL (≈ 642 µM)
MAC26
  IC50: 208 µg/mL (≈ 742 µM)
DLD-1
  IC50: > 500 µg/mL
HRT-18 cell line
  IC50: 95 µg/mL (≈ 339 µM)
